# Data from patent US10800792B2, “Inhibitors of Bruton's tyrosine kinase and method of their use” (JANSSEN PHARMACEUTICA NV, priority 2015, dated 2020).
# Biological target: unphosphorylated-BTK kinase domain (UP-BTK), GST-tagged human BTK (389-659aa) (Homo sapiens (Human), UniProt Q06187)
# Assay: BTK kinase Lanthascreen binding assay
# Conditions: Lanthascreen tracer competition, 60 minutes incubation; pIC50 = negative log of the IC50 in molar
# Method in brief: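 Lanthascreen competition binding; test compound vs fluorescent tracer on unphosphorylated BTK. Output: pIC50 (−log IC50, M).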
# Chain of unphosphorylated-BTK kinase domain (UP-BTK), GST-tagged human BTK (389-659aa) (Q06187 389-659): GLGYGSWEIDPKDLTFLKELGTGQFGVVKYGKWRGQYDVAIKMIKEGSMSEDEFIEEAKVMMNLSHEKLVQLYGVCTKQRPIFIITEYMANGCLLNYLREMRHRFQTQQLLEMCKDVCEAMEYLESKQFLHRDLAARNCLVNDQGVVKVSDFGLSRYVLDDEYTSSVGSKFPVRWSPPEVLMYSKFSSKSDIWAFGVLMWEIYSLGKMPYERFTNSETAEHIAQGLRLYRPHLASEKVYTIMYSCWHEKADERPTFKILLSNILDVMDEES
row,Structure (SMILES),BTK_I_binding pIC50
1,"C=CC(=O)N1CCC[C@@H](NC(=O)c2sc3nccc4c3c2NC(=O)N4c2ccnc(C3CCCCC3)c2)C1 [Example 677, (R)—N-(1-Acryloylpiperidin-3-yl)-5-(2-cyclohexylpyridin-4-yl)-4-oxo-4,5-dihydro-3H-1-thia-3,5,8-triazaacenaphthylene-2-carboxamide]",7.3
2,"C=CC(=O)N1CCC[C@@H](NC(=O)c2sc3nccc4c3c2NC(=O)N4c2cc(C)nc(-c3ccccc3)c2)C1 [Example 734, (R)—N-(1-Acryloylpiperidin-3-yl)-5-(2-methyl-6-phenylpyridin-4-yl)-4-oxo-4,5-dihydro-3H-1-thia-3,5,8-triazaacenaphthylene-2-carboxamide]",<6
3,"C=CC(=O)N1CC[C@@H](NC(=O)c2sc3nccc4c3c2NC(=O)N4c2ccc(Oc3cccnn3)cc2)C1 [Example 803, (R)—N-(1-Acryloylpyrrolidin-3-yl)-4-oxo-5-(4-(pyridazin-3-yloxy)phenyl)-4,5-dihydro-3H-1-thia-3,5,8-triazaacenaphthylene-2-carboxamide]",6.1
4,"CCC(=O)N1CCC[C@@H](NC(=O)c2sc3nccc4c3c2NC(=O)N4c2ccc(Oc3cccnn3)cc2C)C1 [Example 809, (R)-5-(2-Methyl-4-(pyridazin-3-yloxy)phenyl)-4-oxo-N-(1-propionylpiperidin-3-yl)-4,5-dihydro-3H-1-thia-3,5,8-triazaacenaphthylene-2-carboxamide]",<6
5,"C=CC(=O)N1CCC[C@@H](NC(=O)c2sc3nccc4c3c2NC(=O)N4c2ccc(OC3CCOCC3)cc2C)C1 (single isomer, unassigned) [Example 814, (R)—N-(1-Acryloylpiperidin-3-yl)-5-(*R)-(2-methyl-4-((tetrahydro-2H-pyran-4-yl)oxy)phenyl)-4-oxo-4,5-dihydro-3H-1-thia-3,5,8-triazaacenaphthylene-2-carboxamide]",<6
6,"C=CC(=O)N1CCC[C@@H](NC(=O)c2sc3nccc4c3c2NC(=O)N4c2ccnc(C3CCC3)c2)C1 [Example 591, (R)—N-(1-Acryloylpiperidin-3-yl)-5-(2-cyclobutylpyridin-4-yl)-4-oxo-4,5-dihydro-3H-1-thia-3,5,8-triazaacenaphthylene-2-carboxamide]",7.5
7,"CCC(=O)N1CCC[C@H](NC(=O)c2sc3nccc4c3c2NC(=O)N4c2ccc(Oc3ccccc3)cc2C)C1 [Example 891, (S)-5-(2-Methyl-4-phenoxyphenyl)-4-oxo-N-(1-propionylpiperidin-3-yl)-4,5-dihydro-3H-1-thia-3,5,8-triazaacenaphthylene-2-carboxamide]",7.0
8,"CC(C)Cc1cccc(N2C(=O)Nc3c(C(=O)N[C@@H]4CCCNC4)sc4nccc2c34)c1 [Example 721, (R)-5-(3-Isobutylphenyl)-4-oxo-N-(piperidin-3-yl)-4,5-dihydro-3H-1-thia-3,5,8-triazaacenaphthylene-2-carboxamide]",6.2

# Same assay, conditions: Lanthascreen tracer competition, 60 minutes incubation; pIC50 = negative log of the IC50 in molar; read-out: BTK_I_binding pIC50 (converted)
row,Structure (SMILES),IC50 [nM]
1,"Cc1cc(OCCOC(C)C)ccc1N1C(=O)Nc2c(C(=O)N[C@@H]3CCCNC3)sc3nccc1c23 [Example 730, (R)-5-(4-(2-Isopropoxyethoxy)-2-methylphenyl)-4-oxo-N-(piperidin-3-yl)-4,5-dihydro-3H-1-thia-3,5,8-triazaacenaphthylene-2-carboxamide]",> 1000

# Same assay, conditions: pIC50 = negative log of the IC50 in molar; 60 minutes incubation, 50 nM Tracer 236
row,Structure (SMILES),BTK_I_binding pIC50
1,"COC[C@@H](O)C(=O)N1CCC[C@@H](NC(=O)c2sc3nccc4c3c2NC(=O)N4c2ccc(Oc3ccccc3)cc2C)C1 [Example 143, N—((R)-1-((R)-2-Hydroxy-3-methoxypropanol)piperidin-3-yl)-5-(2-methyl-4-phenoxyphenyl)-4-oxo-4,5-dihydro-3H-1-thia-3,5,8-triazaacenaphthylene-2-carboxamide]",7.3
2,"C=CC(=O)N1CC[C@@H](NC(=O)c2sc3nccc4c3c2NC(=O)N4c2ccc(S(F)(F)(F)(F)F)cc2C)C1 [Example 264, (R)—N-(1-Acryloylpyrrolidin-3-yl)-5-(2-methyl-4-(pentafluorothio)phenyl)-4-oxo-4,5-dihydro-3H-1-thia-3,5,8-triazaacenaphthylene-2-carboxamide]",6.4
3,"Cc1cc(Oc2ccccc2)ccc1N1C(=O)Nc2c(C(=O)NC[C@H]3CCCN3)sc3nccc1c23 [Example 276, (R)-5-(2-Methyl-4-phenoxyphenyl)-4-oxo-N-(pyrrolidin-2-ylmethyl)-4,5-dihydro-3H-1-thia-3,5,8-triazaacenaphthylene-2-carboxamide]",6.3
4,"COC(C)(C)/C=C(\C#N)C(=O)N1CCC[C@@H](NC(=O)c2sc3nccc4c3c2NC(=O)N4c2ccc(Oc3ccccc3)cc2C)C1 [Example 40, (R,E)-N-(1-(2-Cyano-4-methoxy-4-methylpent-2-enoyl)piperidin-3-yl)-5-(2-methyl-4-phenoxyphenyl)-4-oxo-4,5-dihydro-3H-1-thia-3,5,8-triazaacenaphthylene-2-carboxamide]",7.6
5,"Cc1cc(Oc2ccccc2)ccc1N1C(=O)Nc2c(C(=O)N[C@H]3CCOC3)sc3nccc1c23 [Example 90, (S)-5-(2-Methyl-4-phenoxyphenyl)-4-oxo-N-(tetrahydrofuran-3-yl)-4,5-dihydro-3H-1-thia-3,5,8-triazaacenaphthylene-2-carboxamide]",7.5
6,"Cc1cc(Oc2ccccc2)ccc1N1C(=O)Nc2c(C(=O)NC3CCC(=O)N(C)C3)sc3nccc1c23 (stereo not shown) [Example 162, 5-(2-Methyl-4-phenoxyphenyl)-N-(1-methyl-6-oxopiperidin-3-yl)-4-oxo-4,5-dihydro-3H-1-thia-3,5,8-triazaacenaphthylene-2-carboxamide]",6.8

# Same assay, conditions: pIC50 = negative log of the IC50 in molar; 60 minutes incubation, 50 nM Tracer 236; read-out: BTK_I_binding pIC50 (converted)
row,Structure (SMILES),IC50 [nM]
1,"C=CC(=O)N1CC(OC)[C@@H](NC(=O)c2sc3nccc4c3c2NC(=O)N4c2ccc(Oc3ccccc3)cc2C)C1 (stereo in doubt) [Example 34, N-((3S,4R)-1-Acryloyl-4-methoxypyrrolidin-3-yl)-5-(2-methyl-4-phenoxyphenyl)-4-oxo-4,5-dihydro-3H-1-thia-3,5,8-triazaacenaphthylene-2-carboxamide]",25.1
2,"C=CC(=O)N1C[C@H](F)C[C@@H](NC(=O)c2sc3nccc4c3c2NC(=O)N4c2ccc(Oc3ccccc3)cc2C)C1 [Example 1, N-((3R,5R)-1-Acryloyl-5-fluoropiperidin-3-yl)-5-(2-methyl-4-phenoxyphenyl)-4-oxo-4,5-dihydro-3H-1-thia-3,5,8-triazaacenaphthylene-2-carboxamide]",20

# Same assay, conditions: unphosphorylated-BTK kinase domain, 50 nM Tracer 236, 60 minutes; pIC50 = negative log of the IC50 in molar
row,Structure (SMILES),BTK_I_binding pIC50
1,"Cc1cc(Oc2ccccc2)ccc1N1C(=O)Nc2c(C(=O)N[C@H]3CCNC(C)C3)sc3nccc1c23 (single isomer, unassigned) [Example 432, 5-(*S)-(2-Methyl-4-phenoxyphenyl)-N-((4*S)-2-methylpiperidin-4-yl)-4-oxo-4,5-dihydro-3H-1-thia-3,5,8-triazaacenaphthylene-2-carboxamide]",7.0
2,"Cc1cc(Oc2ccccc2)ccc1N1C(=O)Nc2c(C(=O)N[C@H]3CCNC(C)C3)sc3nccc1c23 (single isomer, unassigned) [Example 433, 5-(*R)-(2-Methyl-4-phenoxyphenyl)-N-((4*S)-2-methylpiperidin-4-yl)-4-oxo-4,5-dihydro-3H-1-thia-3,5,8-triazaacenaphthylene-2-carboxamide]",5.4
3,"C=CC(=O)N1CCC[C@@H](NC(=O)c2sc3nccc4c3c2NC(=O)N4c2ccc3ccccc3c2)C1 [Example 419, (R)—N-(1-Acryloylpiperidin-3-yl)-5-(naphthalen-2-yl)-4-oxo-4,5-dihydro-3H-1-thia-3,5,8-triazaacenaphthylene-2-carboxamide]",5.7
4,"CN[C@@H](C)C(=O)N1CCC[C@@H](NC(=O)c2sc3nccc4c3c2NC(=O)N4c2ccc(Oc3ccccc3)cc2C)C1 (single isomer, unassigned) [Example 524, 5-(*S)-(2-Methyl-4-phenoxyphenyl)-N—((R)-1-((S)-2-(methylamino)propanol)piperidin-3-yl)-4-oxo-4,5-dihydro-3H-1-thia-3,5,8-triazaacenaphthylene-2-carboxamide]",7.8
5,"CN(C)C/C=C/C(=O)N1CCC[C@@H](NC(=O)c2sc3nccc4c3c2NC(=O)N4c2cccc(-c3ccccc3)c2)C1 [Example 573, (R,E)-5-([1,1′-Biphenyl]-3-yl)-N-(1-(4-(dimethylamino)but-2-enoyl)piperidin-3-yl)-4-oxo-4,5-dihydro-3H-1-thia-3,5,8-triazaacenaphthylene-2-carboxamide]",6.6

# Same assay, conditions: unphosphorylated-BTK kinase domain, 50 nM Tracer 236, 60 minutes; pIC50 = negative log of the IC50 in molar; read-out: BTK_I_binding pIC50 (converted)
row,Structure (SMILES),IC50 [nM]
1,"O=C(N[C@@H]1CCCNC1)c1sc2nccc3c2c1NC(=O)N3c1ccc(OC(F)(F)F)cc1 [Example 415, (R)-4-Oxo-N-(piperidin-3-yl)-5-(4-(trifluoromethoxy)phenyl)-4,5-dihydro-3H-1-thia-3,5,8-triazaacenaphthylene-2-carboxamide]",6310
2,"Cc1cc(Oc2ccccc2)ccc1N1C(=O)Nc2c(C(=O)N[C@@H]3CCCN(C(=O)/C(C#N)=C/C4CC4)C3)sc3nccc1c23 (single isomer, unassigned) [Example 365, (R,E)-N-(1-(2-Cyano-3-cyclopropylacryloyl)piperidin-3-yl)-5-(*R)-(2-methyl-4-phenoxyphenyl)-4-oxo-4,5-dihydro-3H-1-thia-3,5,8-triazaacenaphthylene-2-carboxamide]",50.1

# Same assay, conditions: unphosphorylated-BTK kinase domain, 60 minutes incubation, 50 nM Tracer 236; pIC50 = negative log of the IC50 in molar
row,Structure (SMILES),BTK_I_binding pIC50
1,"O=C(NC1CCNC1)c1sc2nccc3c2c1NC(=O)N3c1ccc(Oc2ccccc2)cc1 (stereo in doubt) [Example 934, (S)-4-Oxo-5-(4-phenoxyphenyl)-N-(pyrrolidin-3-yl)-4,5-dihydro-3H-1-thia-3,5,8-triazaacenaphthylene-2-carboxamide]",6.1
